Key:
[1] = target: Acidic phospholipase A2 2 (Naja naja, UniProt P15445); assay: Inhibition of snake venom phospholipase A2 assessed as oxygen consumption for 3 mins
[2] = target: Acidic phospholipase A2 2 (Naja naja) (UniProt P15445); assay: Inhibition of snake venom phospholipase A2 at 1 mM assessed as oxygen consumption for 3 mins
[3] = target: Acidic phospholipase A2 2 (Naja naja) (UniProt P15445); assay: Inhibition of snake venom phospholipase A2 at 3.700 mM assessed as oxygen consumption for 3 mins
[4] = target: Acidic phospholipase A2 2 (Naja naja) (UniProt P15445); conditions: 5.800 mM
Description: Inhibition of snake venom phospholipase A2 at 5.800 mM assessed as oxygen consumption for 3 mins

Sequence of Acidic phospholipase A2 2 (Naja naja) (P15445 whole entry): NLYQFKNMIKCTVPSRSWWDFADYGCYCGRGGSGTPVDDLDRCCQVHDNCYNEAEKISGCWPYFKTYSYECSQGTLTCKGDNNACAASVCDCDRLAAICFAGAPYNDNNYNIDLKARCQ
Sequence of Acidic phospholipase A2 2 (P15445 whole entry): as above

SMILES | IC50 [1] [µM] | inhibition [2] [%] | inhibition [3] [%] | inhibition [4] [%]
C=C(CC[C@@H](C(=O)O)[C@H]1[C@H](O)C[C@@]2(C)C3=CC[C@H]4C(C)(C)[C@@H](O)CC[C@]4(C)C3=CC[C@]12C)C(C)C [DEHYDROTUMULOSIC ACID] | 845 | 58.6 |  | 
C=C(CC[C@@H](C(=O)O)[C@H]1[C@H](O)C[C@@]2(C)C3=C(CC[C@]12C)[C@@]1(C)CC[C@H](OC(C)=O)C(C)(C)[C@@H]1CC3)C(C)C [PACHYMIC ACID] | 2900 |  | 66 | 
CCN(CC)CCCC(C)Nc1c2ccc(Cl)cc2nc2ccc(OC)cc12 (stereo unspecified) [QUINACRINE] | 2160 |  |  | 85.5
